Data as given in ChEMBL document CHEMBL5356982, “Truncated derivatives of amphidinol 3 reveal the functional role of polyol chain in sterol-recognition and pore formation” (Bioorg Med Chem Lett, 2024).
Activity calls are given as the source filed them. The calls are words filed in the database; no cut-off is given here.

Legend:
Lipid bilayer [1] = experiment: Binding affinity to 10% Ergosterol containing DOPC liposomes assessed as dissociation constant for second step at 50 uM and measured from 300 to 600 sec by SPR method
Lipid bilayer [2] = experiment: Binding affinity to DOPC liposomes at 50 uM and measured upto 600 sec by SPR method
Lipid bilayer [3] = experiment: Binding affinity to 10% Ergosterol containing DOPC liposomes assessed as dissociation constant for first step at 50 uM and measured from 300 to 600 sec by SPR method
Aspergillus niger = experiment: Antifungal activity against Aspergillus niger NBRC 31012 assessed as inhibition zone incubated for 2 days by disk diffusion method; assay type: functional; conditions: time 2 day
Lipid bilayer [4] = experiment: Induction of pore formation in 10% Ergosterol containing DOPC liposomes assessed as calcein dye leakage by measuring calcein fluorescence at 10 uM by fluorescence microplate reader analysis
Lipid bilayer [5] = experiment: Binding affinity to 10% Ergosterol containing DOPC liposomes assessed as dissociation constant at equilibrium at 50 uM and measured from 300 to 600 sec by SPR method
Lipid bilayer [6] = experiment: Induction of pore formation in 10% Ergosterol containing DOPC liposomes assessed as calcein dye leakage by measuring calcein fluorescence at 27 uM by fluorescence microplate reader analysis
Lipid bilayer [7] = experiment: Binding affinity to DOPC liposomes assessed as dissociation constant for second step at 50 uM and measured from 300 to 600 sec by SPR method
Lipid bilayer [8] = experiment: Induction of pore formation in DOPC liposomes assessed as calcein dye leakage by measuring calcein fluorescence at 27 uM by fluorescence microplate reader analysis
Lipid bilayer [9] = experiment: Induction of pore formation in 10% Ergosterol containing DOPC liposomes assessed as calcein dye leakage by measuring calcein fluorescence by fluorescence microplate reader analysis
Lipid bilayer [10] = experiment: Binding affinity to DOPC liposomes assessed as dissociation constant at equilibrium at 50 uM and measured from 300 to 600 sec by SPR method
Lipid bilayer [11] = experiment: Binding affinity to DOPC liposomes assessed as dissociation constant for first step at 50 uM and measured from 300 to 600 sec by SPR method
Lipid bilayer [12] = experiment: Binding affinity to 10% Ergosterol containing DOPC liposomes at 50 uM and measured upto 600 sec by SPR method

step-2 equilibrium ratio (Lipid bilayer [1]) | Activity (Lipid bilayer [2]) | MIC (Aspergillus niger) [µg] | Activity (Lipid bilayer [4]) | Activity (Lipid bilayer [6]) | Activity (Lipid bilayer [12]) | SMILES | Kd (Lipid bilayer [3]) [µM] | Kd (Lipid bilayer [5]) [µM] | Kd (Lipid bilayer [7]) [µM] | Kd (Lipid bilayer [1]) [µM] | Activity (Lipid bilayer [8]) | EC50 (Lipid bilayer [9]) [µM] | Kd (Lipid bilayer [10]) [µM] | Kd (Lipid bilayer [11]) [µM]
0.044 | inactive | 20 | Active | inactive | – | C=C/C=C/CC/C=C/C=C/C=C/CC/C=C/[C@H](O)[C@H](O)[C@@H]1O[C@@H]([C@H](O)[C@H](O)C(=C)CC[C@@H](O)[C@@H]2C[C@H](O)[C@H](O)[C@@H]([C@H](O)[C@@H](O)/C=C(\C)CC[C@H](O)C[C@H](O)[C@H](O)[C@@H](C)CCO)O2)C[C@@H](O)[C@H]1O | 25 | 1 | – | – | – | – | – | –
– | inactive | >300 | – | inactive | inactive | C=C/C=C/CC/C=C/C=C/C=C/CC/C=C/[C@H](O)[C@H](O)[C@@H]1O[C@@H]([C@H](O)[C@H](O)C(=C)CC[C@@H](O)[C@@H]2C[C@H](O)[C@H](O)[C@@H]([C@H](O)[C@@H](O)CO)O2)C[C@@H](O)[C@H]1O | – | – | – | – | – | – | – | –

SMILES | step-2 equilibrium ratio (Lipid bilayer [1]) | Activity (Lipid bilayer [2]) | MIC (Aspergillus niger) [µg] | Activity (Lipid bilayer [4]) | Activity (Lipid bilayer [6]) | Activity (Lipid bilayer [12]) | Kd (Lipid bilayer [3]) [µM] | Kd (Lipid bilayer [5]) [µM] | Kd (Lipid bilayer [7]) [µM] | Kd (Lipid bilayer [1]) [µM] | Activity (Lipid bilayer [8]) | EC50 (Lipid bilayer [9]) [µM] | Kd (Lipid bilayer [10]) [µM] | Kd (Lipid bilayer [11]) [µM]
C=C/C=C/CC/C=C/C=C/C=C/CC/C=C/[C@H](O)[C@H](O)[C@@H]1O[C@@H]([C@H](O)[C@H](O)C(=C)CC[C@@H](O)[C@@H]2C[C@H](O)[C@H](O)[C@@H]([C@H](O)[C@@H](O)/C=C(\C)CC[C@H](O)C[C@H](O)[C@H](O)[C@@H](C)C[C@H](O)[C@@H](O)CCCCC[C@@H](O)CCC[C@@H](O)/C=C/C[C@@H](O)/C=C/C[C@@H](O)CO)O2)C[C@@H](O)[C@H]1O | – | – | 8 | – | – | – | 51 | 0.00012 | 6300 | 2.4 | Active | 2.96 | 6.9 | 980
